Structures can show the parent of a compound that is named as a salt.

As usually defined, the melting point is the temperature of the solid-liquid transition. As usually defined, the IC50 is the concentration that gives 50% inhibition.

Tested on in one data set: not given
Assay: not given
Details: not given
In turn, `N#Cc1cc(Cl)cc(Oc2c(Br)ccc(Cc3n[nH]c4cnccc34)c2F)c1` displayed a melting point of 182 to 186.9 °C.
Still for that read-out and setting: the value for `Cn1nc(Cc2ccc(Br)c(Oc3cc(Cl)cc(C#N)c3)c2F)c2cccnc21` was 138.6 to 142.6 °C.
The same measure, in the same setting: the value for `N#Cc1cc(Cl)cc(Oc2c(Br)ccc(Cc3n[nH]c4ncncc34)c2F)c1` was 215 to 218 °C; that for `N#Cc1cc(Cl)cc(Oc2c(Br)ccc(Cc3n[nH]c4c([N+](=O)[O-])cccc34)c2F)c1` was 214.2 to 216 °C; that for `N#Cc1cc(C#N)cc(Oc2c(C3CC3)ccc(Cc3n[nH]c4ncccc34)c2F)c1` was 221 to 223.6 °C.
The same measure, in the same setting: under `COc1ccc2c(Cc3ccc(Br)c(Oc4cc(Cl)cc(C#N)c4)c3F)n[nH]c2n1` stands 223.8 to 225 °C; under `N#Cc1cc(Cl)cc(Oc2c(Br)ccc(Cc3n[nH]c4ncc(F)cc34)c2F)c1`, 206.5 to 209 °C; under `Cc1ccc(Cc2n[nH]c3ncccc23)c(F)c1Oc1cc(Cl)cc(C#N)c1`, 215 to 218.8 °C.
`CCc1ccc(Cc2n[nH]c3ncccc23)c(F)c1Oc1cc(Cl)cc(C#N)c1` registered a melting point of 205 to 206.9 °C.
The same measure, in the same setting: under `COc1ccc(Cc2n[nH]c3ncccc23)c(F)c1Oc1cc(C#N)cc(C(F)F)c1` stands 197.9 to 201.9 °C; under `N#Cc1cc(Oc2c(Br)ccc(Cc3n[nH]c4ncccc34)c2F)cc(C(F)F)c1`, 192 to 194.4 °C.
In turn, `N#Cc1cc(Cl)cc(Oc2c(Br)ccc(Cc3n[nH]c4c(C#N)cccc34)c2F)c1` yielded a melting point of 250 to 251.1 °C.
Same read-out and setting: under `N#Cc1cc(Oc2c(Br)ccc(Cc3n[nH]c4cnccc34)c2F)cc(C(F)F)c1` stands 166 to 166.9 °C.
The same measure, in the same setting: under `N#Cc1cc(Cl)cc(Oc2c(C3CC3)ccc(Cc3n[nH]c4ncccc34)c2F)c1` stands 215 to 216.8 °C; under `N#Cc1cc(Cl)cc(Oc2c(Br)ccc(Cc3n[nH]c4c(N)cccc34)c2F)c1`, 179.9 to 181.3 °C.
The same measure, in the same setting: under `N#Cc1cc(Cl)cc(Oc2c(Br)ccc(Cc3n[nH]c4ccncc34)c2F)c1` stands 216 to 218.5 °C.
In turn, `CS(=O)(=O)Nc1cccc2c(Cc3ccc(Br)c(Oc4cc(Cl)cc(C#N)c4)c3F)n[nH]c12` displayed a melting point of 234 to 236 °C.
As to `N#Cc1cc(Cl)cc(Oc2c(Cl)ccc(Cc3cc(-c4ccccc4)[nH]n3)c2F)c1`, the melting point was 148 to 150.1 °C.
Still for that read-out and setting: under `Cc1ccc(Cc2n[nH]c3ncccc23)c(F)c1Oc1cc(C#N)cc(C(F)F)c1` stands 212.5 to 214.4 °C; under `N#Cc1cc(Cl)cc(Oc2c(Cl)ccc(Cc3n[nH]c4ncccc34)c2F)c1`, 210 to 215.5 °C; under `N#Cc1cc(Cl)cc(Oc2c(Br)ccc(Cc3n[nH]c4nnccc34)c2F)c1`, 237.6 to 240.8 °C.
Same read-out and setting: the value for `CN1CCc2c(Cc3ccc(Br)c(Oc4cc(Cl)cc(C#N)c4)c3F)n[nH]c2C1=O` was 235.5 to 237.1 °C; that for `N#Cc1cc(Cl)cc(Oc2c(Br)ccc(Cc3n[nH]c4nccnc34)c2F)c1` was 204 to 205 °C; that for `N#Cc1cc(C#N)cc(Oc2c(Cl)ccc(Cc3n[nH]c4nnccc34)c2F)c1` was 222.8 to 224.7 °C.
The same measure, in the same setting: under `N#Cc1cc(Cl)cc(Oc2c(C(F)F)ccc(Cc3n[nH]c4nnccc34)c2F)c1` stands 177.5 to 178.2 °C.
Take `Cc1cc(C#N)cc(Oc2c(Cl)ccc(Cc3n[nH]c4nnccc34)c2F)c1`: the melting point was 200 to 202.9 °C.
On to `CS(=O)(=O)c1ccc(Cc2n[nH]c3nnccc23)c(F)c1Oc1cc(Cl)cc(C#N)c1`, for which the melting point lay in the range of 239.5 to 240.7 °C.
On the same count and under the same terms, the value for `N#Cc1cc(Cl)cc(Oc2c(Br)ccc(Cc3n[nH]c4nc(Cl)ccc34)c2F)c1` was 212.3 to 214 °C; that for `N#Cc1cc(Cl)cc(Oc2c(Cl)ccc(Cc3n[nH]c4ccccc34)c2F)c1` [Compound I-3, 3-Chloro-5-[6-chloro-2-fluoro-3-(1H-indazol-3-ylmethyl)-phenoxy]-benzonitrile] was 163.3 to 163.7 °C.
As to `N#Cc1cc(Oc2c(Br)ccc(Cc3cc(-c4ccccc4)[nH]n3)c2F)cc(C(F)F)c1` [Compound I-5, 3-[6-Bromo-2-fluoro-3-(5-phenyl-1H-pyrazol-3-ylmethyl)-phenoxy]-5-difluoromethyl-benzonitrile], the melting point lay in the range of 78.3 to 90.1 °C.
Still for that read-out and setting: under `N#Cc1cc(Cl)cc(Oc2c(Br)ccc(Cc3n[nH]c4ncccc34)c2F)c1` [Compound I-7, 3-[6-Bromo-2-fluoro-3-(1H-pyrazolo[3,4-b]pyridin-3-ylmethyl)-phenoxy]-5-chloro-benzonitrile] stands 242 to 243 °C.
The same measure, in the same setting: under `N#Cc1cc(Cl)cc(Oc2c(Br)ccc(Cc3n[nH]c4nc(Cl)ncc34)c2F)c1` [Compound I-13, 3-[6-Bromo-3-(6-chloro-1H-pyrazolo[3,4-d]pyrimidin-3-ylmethyl)-2-fluoro-phenoxy]-5-chloro-benzonitrile] stands 216 to 217.9 °C; under `N#Cc1cc(C#N)cc(Oc2c(Br)ccc(Cc3n[nH]c4ncccc34)c2F)c1` [Compound I-16, 5-[6-Bromo-2-fluoro-3-(1H-pyrazolo[3,4-b]pyridin-3-ylmethyl)-phenoxy]-isophthalonitrile], 230 to 232.9 °C.
Regarding `N#Cc1cc(Oc2c(Cl)ccc(Cc3n[nH]c4ncccc34)c2F)cc(C(F)F)c1` [Compound I-28, 3-[6-Chloro-2-fluoro-3-(1H-pyrazolo[3,4-b]pyridin-3-ylmethyl)-phenoxy]-5-difluoromethyl-benzonitrile], the melting point fell in the range of 198 to 199 °C.

In the next data set the target is T1, HIV-1 RT (Human immunodeficiency virus type 1 group M subtype B, UniProt P03366). Briefly: Heteropolymer HIV Reverse Transcriptase Assay: Inhibitor IC50 Determination. The note with it: purified recombinant enzyme, poly(rA)/oligo(dT)16 template-primer, 4 nM HIV-1 RT, 37° C. 30 min; TABLE 2. The data set is classed as biochemical. As to the method: HIV-1 RT assay was carried out in 96-well Millipore MultiScreen MADVNOB50 plates using purified recombinant enzyme and a poly(rA)/oligo(dT)16 template-primer in a total volume of 50 μL. The assay constituents were 50 mM Tris/HCl, 50 mM NaCl, 1 mM EDTA, 6 mM MgCl2, 5 μM dTTP, 0.15 μCi [^3H] dTTP, 5 μg/ml poly (rA) pre annealed to 2.5 μg/ml oligo (dT)16 and a range of inhibitor concentrations in a final concentration of 10% DMSO. Reactions were initiated by adding 4 nM HIV-1 RT and after incubation at 37° C. for 30 min, they were stopped by the addition of 50 μl ice cold 20% TCA and allowed to precipitate at 4° C. for 30 min. The precipitates were collected by applying vacuum to the plate and sequentially washing with 3×200 μl of 10% TCA and 2×200 μl 70% ethanol. Finally, the plates were dried and radioactivity counted in a Packard TopCounter after the addition of 25 μl scintillation fluid per well. IC50's were calculated by plotting % inhibition versus log10 inhibitor concentrations.
In the case of `N#Cc1cc(Oc2c(Br)ccc(Cc3n[nH]c4ccccc34)c2F)cc(C(F)F)c1` [Compound I-6, 3-[6-Bromo-2-fluoro-3-(1H-indazol-3-ylmethyl)-phenoxy]-5-difluoromethyl-benzonitrile], the IC50 was 11.8 nM.
For the compound `N#Cc1cc(Cl)cc(Oc2c(Br)ccc(Cc3n[nH]c4ncccc34)c2F)c1` [Compound I-7, 3-[6-Bromo-2-fluoro-3-(1H-pyrazolo[3,4-b]pyridin-3-ylmethyl)-phenoxy]-5-chloro-benzonitrile], the half-maximal inhibitory concentration (IC50) is 7.6 nM.
Still for that read-out and setting: the value for `N#Cc1cc(Cl)cc(Oc2c(Cl)ccc(Cc3n[nH]c4nnccc34)c2F)c1` [Compound I-11, 3-Chloro-5-[6-chloro-2-fluoro-3-(1H-pyrazolo[3,4-c]pyridazin-3-ylmethyl)-phenoxy]-benzonitrile] was 1 nM; that for `N#Cc1cc(Cl)cc(Oc2c(Br)ccc(Cc3n[nH]c4nc(Cl)ncc34)c2F)c1` [Compound I-13, 3-[6-Bromo-3-(6-chloro-1H-pyrazolo[3,4-d]pyrimidin-3-ylmethyl)-2-fluoro-phenoxy]-5-chloro-benzonitrile] was 8.6 nM.
As to `N#Cc1cc(C#N)cc(Oc2c(Br)ccc(Cc3n[nH]c4ncccc34)c2F)c1` [Compound I-16, 5-[6-Bromo-2-fluoro-3-(1H-pyrazolo[3,4-b]pyridin-3-ylmethyl)-phenoxy]-isophthalonitrile], the half-inhibitory concentration (IC50) was 3.3 nM.
Still for that read-out and setting: the value for `N#Cc1cc(Oc2c(Cl)ccc(Cc3n[nH]c4ncccc34)c2F)cc(C(F)F)c1` [Compound I-28, 3-[6-Chloro-2-fluoro-3-(1H-pyrazolo[3,4-b]pyridin-3-ylmethyl)-phenoxy]-5-difluoromethyl-benzonitrile] was 3.7 nM; that for `Cn1c(=O)ccc2c(Cc3ccc(Br)c(Oc4cc(Cl)cc(C#N)c4)c3F)n[nH]c21` [Compound I-48, 3-[6-Bromo-2-fluoro-3-(7-methyl-6-oxo-6,7-dihydro-1H-pyrazolo[3,4-b]pyridin-3-ylmethyl)-phenoxy]-5-chloro-benzonitrile, TFA salt] was 0.9 nM.

In the next data set the target is T1, HIV-1 RT. Briefly: Homopolymer HIV Reverse Transcriptase Assay: Inhibitor IC50 Determination. The format is biochemical. The note with it: purified recombinant enzyme, poly(rA)/oligo(dT)16 template-primer, 5 nM HIV-1 RT, 37° C. 30 min; TABLE 3. The method, then:
HIV-1 RT assay was carried out in 96-well Millipore filtermat NOB50 plates using purified recombinant enzyme and a poly(rA)/oligo(dT)16 template-primer in a total volume of 50 μL. The assay constituents were 50 mM Tris/HCl, 50 mM NaCl, 1 mM EDTA, 6 mM MgCl2, 5 μM dTTP, 0.1 μCi [^3H] dTTP, 5 μg/ml poly (rA) pre annealed to 2.5 μg/ml oligo (dT)16 and a range of inhibitor concentrations in a final concentration of 10% DMSO. Reactions were initiated by adding 5 nM HIV-1 RT and after incubation at 37° C. for 30 min, they were stopped by the addition of 50 μl ice cold 20% TCA and allowed to precipitate at 4° C. for 30 min. The precipitates were collected by applying vacuum to the plate and sequentially washing with 2×200 μl of 10% TCA and 2×200 μl 70% ethanol. Finally the plates were dried and radioactivity counted in a Wallac Microbeta 1450 after the addition of 15 μL scintillation fluid per well. IC50's (TABLE 3) were calculated by plotting % inhibition versus log10 inhibitor concentrations.
For the compound `N#Cc1cc(Cl)cc(Oc2c(Cl)ccc(Cc3n[nH]c4ccccc34)c2F)c1` [Compound I-3, 3-Chloro-5-[6-chloro-2-fluoro-3-(1H-indazol-3-ylmethyl)-phenoxy]-benzonitrile], the IC50 was found to be 52 nM.
Same read-out and setting: the value for `N#Cc1cc(Oc2c(Br)ccc(Cc3cc(-c4ccccc4)[nH]n3)c2F)cc(C(F)F)c1` [Compound I-5, 3-[6-Bromo-2-fluoro-3-(5-phenyl-1H-pyrazol-3-ylmethyl)-phenoxy]-5-difluoromethyl-benzonitrile] was 55 nM.

The values above are taken from patent publication US8063064B2, “Non-nucleoside reverse transcriptase inhibitors” (Roche Palo Alto LLC, priority 2006, dated 2011).
